Key:
[1] = Solubility in aqueous ethanol (UV method); assay type: physicochemical; details: for Solubility in 20% ethanol: doxycycline salts, Table 9, in mg/mL; for Solubility in 30% ethanol: doxorubicin salts
Procedure: The mixture was centrifuged at 3000 rpm for 10 min and the supernatant filtered through a 0.2 micrometer filter to remove aggregates of undissolved solid product. The solubility of the compound was determined by a UV method. Particle size analysis was accomplished by laser diffraction method.

[2] = In vivo distribution of doxycycline in lung and blood serum of Wistar rats; details: 30 min; for Blood serum Difference / Lung tissue Difference: relative to control CI-DOX (1); for Blood serum DOX / Lung tissue DOX: doxycycline, 3 mg/kg i.v. single bolus, ± SD
Procedure: (§1) Five or six pieces of lung tissue of a total weight of about 1 g were taken from different parts of a lung. The samples were homogenized with a solution of aqueous ethanol containing HCl for 20 s at 7000 rpm and for 10 s at 11000 rpm. […] Doxorubicin and doxycycline (DOC) concentration in the final supernatant was determined with fluorometric analysis and high-performance liquid chromatography respectively.

[3] = In vivo distribution of doxorubicin in lung and femoral muscle of Californian rabbits; details: 4 hours; for Femoral muscle DOX / Lung tissue DOX: 1.25 mg/kg i.v. marginal ear vein, ± SD
Procedure: (§2) For in vivo investigation both rats and rabbits were used: female Wistar rats 60-75 days old weighing 300 g±30 g and Californian breed male rabbits 75-90 days old weighing 2000 g±250 g were selected. […] Different doxorubicin containing formulations with a total doxorubicin dose 5 mg/kg were administered via a single bolus injection into the tail for rats and via a slow flow of 1 ml/min in the marginal ear vein for rabbits.
as §1
Suspension of complexes of doxorubicin and doxorubicin hydrochloride were administered via a slow flow of 1 ml/min to rabbits in the marginal ear vein with a total doxorubicin dose 1.25 mg/kg. Animals were sacrificed after 4 hours after administration. Concentration of doxorubicin in lung and femoral muscle was determined in accordance to the procedure described above. As it is seen from table 8 the concentration of doxorubicin in femoral muscle as a representation of a system concentration is not increased for complexes compared with doxorubicin hydrochloride.

[4] = In vivo distribution of doxorubicin in lung and blood serum of Wistar rats; details: 4 hours; for Blood serum DOX / Lung tissue DOX: 5 mg/kg i.v. single bolus, ± SD; for Blood serum Relative difference / Lung tissue Relative difference: relative to control CI-DOX (1)
Procedure: as §2, §1
An aqueous solution of doxorubicin hydrochloride, an aqueous suspension of doxorubicin alkane sulfate and an aqueous suspension of doxorubicin alkyl sulfonate were administered via a single bolus injection into the tail Animals were sacrificed after 4 hours after administered via a single bolus injection into the tail; total doxorubicin dose 5 mg/kg. […] The results are summarized in Table 7 and illustrated in FIG. 10.

[5] = mitoxantrone alkyl sulfates and alkane sulfonates, 30% ethanol (v/v)
[6] = doxorubicin alkyl sulfates and alkane sulfonates, 30% ethanol (v/v)
[7] = doxycycline alkane sulfonates and alkyl sulfates, 20% aqueous ethanol
[8] = irinotecan alkane sulfonates, 30% ethanol (v/v) per table title

`CCCCCCCCCCCCS(=O)(=O)O.CCCCCCCCCCCCS(=O)(=O)O.O=C1c2c(O)ccc(O)c2C(=O)c2c(NCCNCCO)ccc(NCCNCCO)c21` [mitoxantrone CnH2n+1SO3^− n=12] showed a Solubility [1, 5] of 683.1 µg/mL.
Work on `CCCCCCCCCCCCCCCCCCOS(=O)(=O)O.COc1cccc2c1C(=O)c1c(O)c3c(c(O)c1C2=O)CC(O)(C(=O)CO)CC3OC1CC(N)C(O)C(C)O1` (stereo not drawn) [doxorubicin CnH2n+1OSO3^− n=18] yielded a Solubility [1, 6] of 2.6 µg/mL.
With `CC1c2cccc(O)c2C(O)=C2C(=O)C3(O)C(O)=C(C(N)=O)C(=O)C(N(C)C)C3C(O)C21.CCCCCCCCCCCCOS(=O)(=O)O` (stereo not drawn) [doxycycline CnH2n+1OSO3^− n=12] the “Blood serum Difference” value [2] was 1.10, the “Lung tissue Difference” value [2] was 3.20 and the “Blood serum DOX” value [2] was 127 ± 22 ng/mL. The “Lung tissue DOX” value [2] was 551 ± 185 ng/mL.
In the case of `CC1c2cccc(O)c2C(O)=C2C(=O)C3(O)C(O)=C(C(N)=O)C(=O)C(N(C)C)C3C(O)C21.CCCCCCCCCCCCCCCCCCS(=O)(=O)O` (stereo not drawn) [doxycycline CnH2n+1SO3^− n=18], the Solubility [1, 7] was 1.81 µg/mL.
In the case of `CC1c2cccc(O)c2C(O)=C2C(=O)C3(O)C(O)=C(C(N)=O)C(=O)C(N(C)C)C3C(O)C21.CCCCCCCCCCCCCCCCCCOS(=O)(=O)O` (stereo not drawn) [doxycycline CnH2n+1OSO3^− n=18], the Solubility [1, 7] was 5.23 µg/mL.
For `CCCCCCCCCCS(=O)(=O)O.CCc1c2c(nc3ccc(OC(=O)N4CCC(N5CCCCC5)CC4)cc13)-c1cc3c(c(=O)n1C2)COC(=O)C3(O)CC` (stereo not drawn) [irinotecan alkane sulfonate n=10], the Solubility [1, 8] was 834.8 µg/mL.
In the case of `CCCCCCCCCCCCCCCCS(=O)(=O)O.CCc1c2c(nc3ccc(OC(=O)N4CCC(N5CCCCC5)CC4)cc13)-c1cc3c(c(=O)n1C2)COC(=O)C3(O)CC` (stereo not drawn) [irinotecan alkane sulfonate n=16], the Solubility [1, 8] was 14.76 µg/mL.
For `CCCCCCCCCCCCOS(=O)(=O)O.COc1cccc2c1C(=O)c1c(O)c3c(c(O)c1C2=O)C[C@@](O)(C(=O)CO)C[C@@H]3O[C@H]1C[C@H](N)[C@H](O)[C@H](C)O1` [doxorubicin CnH2n+1OSO3^− n=12], the “Femoral muscle DOX” value [3] was 0.20 ± 0.02 µg/kg, the “Lung tissue DOX” value [3] was 1.61 ± 0.25 µg/kg and the “Blood serum DOX” value [4] was 0.021 ± 0.007 µg/kg. For the same molecule, the “Lung tissue DOX” value [4] was 0.77 ± 0.19 µg/kg.
`CCCCCCCCCCCCCCS(=O)(=O)O.CCCCCCCCCCCCCCS(=O)(=O)O.O=C1c2c(O)ccc(O)c2C(=O)c2c(NCCNCCO)ccc(NCCNCCO)c21` [mitoxantrone CnH2n+1SO3^− n=14] showed a Solubility [1, 5] of 2.03 µg/mL.
With `CCCCCCCCCCS(=O)(=O)O.COc1cccc2c1C(=O)c1c(O)c3c(c(O)c1C2=O)CC(O)(C(=O)CO)CC3OC1CC(N)C(O)C(C)O1` (stereo not drawn) [doxorubicin CnH2n+1SO3^− n=10] the Solubility [1, 6] was 1064 µg/mL.
In the case of `CC1c2cccc(O)c2C(O)=C2C(=O)C3(O)C(O)=C(C(N)=O)C(=O)C(N(C)C)C3C(O)C21.CCCCCCCCCCS(=O)(=O)O` (stereo not drawn) [doxycycline CnH2n+1SO3^− n=10], the Solubility [1, 7] was 3165 µg/mL.
`CCCCCCCCCCOS(=O)(=O)O.CCCCCCCCCCOS(=O)(=O)O.O=C1c2c(O)ccc(O)c2C(=O)c2c(NCCNCCO)ccc(NCCNCCO)c21` [mitoxantrone CnH2n+1OSO3^− n=10] showed a Solubility [1, 5] of 175.8 µg/mL.
In the case of `CC1c2cccc(O)c2C(O)=C2C(=O)C3(O)C(O)=C(C(N)=O)C(=O)C(N(C)C)C3C(O)C21.CCCCCCCCCCCCCCOS(=O)(=O)O` (stereo not drawn) [doxycycline CnH2n+1OSO3^− n=14], the “Blood serum Difference” value [2] was 0.39, the “Lung tissue Difference” value [2] was 9.20 and the “Blood serum DOX” value [2] was 45 ± 1 ng/mL. For the same molecule, the “Lung tissue DOX” value [2] was 1582 ± 101 ng/mL, the Solubility [1, 7] was 117.8 µg/mL and the “Solubility in 20% ethanol” value [1] was 0.1178.
`CCCCCCCCCCS(=O)(=O)O.CCCCCCCCCCS(=O)(=O)O.O=C1c2c(O)ccc(O)c2C(=O)c2c(NCCNCCO)ccc(NCCNCCO)c21` [mitoxantrone CnH2n+1SO3^− n=10] showed a Solubility [1, 5] of 294.9 µg/mL.
In the case of `CCCCCCCCCCCCCCCCS(=O)(=O)O.COc1cccc2c1C(=O)c1c(O)c3c(c(O)c1C2=O)CC(O)(C(=O)CO)CC3OC1CC(N)C(O)C(C)O1` (stereo not drawn) [doxorubicin CnH2n+1SO3^− n=16], the “Femoral muscle DOX” value [3] was 0.12 ± 0.06 µg/kg, the “Lung tissue DOX” value [3] was 10.70 ± 0.77 µg/kg and the “Femoral muscle Relative difference” value ([3]; relative to control CI-DOX (1)) was 0.52. The “Lung tissue Relative difference” value ([3]; relative to control CI-DOX (1)) was 12.89, the Solubility [1, 6] was 11.94 µg/mL and the “Solubility in 30% ethanol” value ([1]; Table 7) was 0.012. For the same molecule, the “Solubility in 30% ethanol” value ([1]; Table 8) was 0.0119, the “Blood serum DOX” value [4] was 0.019 ± 0.007 µg/kg and the “Lung tissue DOX” value [4] was 6.11 ± 0.75 µg/kg. For the same molecule, the “Blood serum Relative difference” value [4] was 1.04 and the “Lung tissue Relative difference” value [4] was 8.61.
In the case of `CC1c2cccc(O)c2C(O)=C2C(=O)C3(O)C(O)=C(C(N)=O)C(=O)C(N(C)C)C3C(O)C21.CCCCCCCCCCCCCCCCS(=O)(=O)O` (stereo not drawn) [doxycycline CnH2n+1SO3^− n=16], the “Blood serum Difference” value [2] was 0.22, the “Lung tissue Difference” value [2] was 11.74 and the “Blood serum DOX” value [2] was 25 ± 2 ng/mL. The “Lung tissue DOX” value [2] was 2020 ± 117 ng/mL, the Solubility [1, 7] was 10.34 µg/mL and the “Solubility in 20% ethanol” value [1] was 0.0103.
Work on `CCCCCCCCOS(=O)(=O)O.CCCCCCCCOS(=O)(=O)O.O=C1c2c(O)ccc(O)c2C(=O)c2c(NCCNCCO)ccc(NCCNCCO)c21` [mitoxantrone CnH2n+1OSO3^− n=8] yielded a Solubility [1, 5] of 780.6 µg/mL.
For `CCCCCCCCS(=O)(=O)O.CCCCCCCCS(=O)(=O)O.O=C1c2c(O)ccc(O)c2C(=O)c2c(NCCNCCO)ccc(NCCNCCO)c21` [mitoxantrone CnH2n+1SO3^− n=8], the Solubility [1, 5] was 1348 µg/mL.
Molecule `CCCCCCCCCCOS(=O)(=O)O.COc1cccc2c1C(=O)c1c(O)c3c(c(O)c1C2=O)CC(O)(C(=O)CO)CC3OC1CC(N)C(O)C(C)O1` (stereo not drawn) [doxorubicin CnH2n+1OSO3^− n=10] has a Solubility [1, 6] of 507.7 µg/mL.
For `CC1c2cccc(O)c2C(O)=C2C(=O)C3(O)C(O)=C(C(N)=O)C(=O)C(N(C)C)C3C(O)C21.CCCCCCCCCCCCCCCCOS(=O)(=O)O` (stereo not drawn) [doxycycline CnH2n+1OSO3^− n=16], the Solubility [1, 7] was 31.99 µg/mL.
`CCCCCCCCCCCCS(=O)(=O)O.CCc1c2c(nc3ccc(OC(=O)N4CCC(N5CCCCC5)CC4)cc13)-c1cc3c(c(=O)n1C2)COC(=O)C3(O)CC` (stereo not drawn) [irinotecan alkane sulfonate n=12] gave a Solubility [1, 8] of 154.5 µg/mL.
With `CC1c2cccc(O)c2C(O)=C2C(=O)C3(O)C(O)=C(C(N)=O)C(=O)C(N(C)C)C3C(O)C21.CCCCCCCCCCCCCCS(=O)(=O)O` (stereo not drawn) [doxycycline CnH2n+1SO3^− n=14] the Solubility [1, 7] was 55.1 µg/mL.
With `CCCCCCCCCCCCS(=O)(=O)O.COc1cccc2c1C(=O)c1c(O)c3c(c(O)c1C2=O)CC(O)(C(=O)CO)CC3OC1CC(N)C(O)C(C)O1` (stereo not drawn) [doxorubicin CnH2n+1SO3^− n=12] the “Blood serum DOX” value [4] was 0.014 ± 0.003 µg/kg, the “Lung tissue DOX” value [4] was 0.88 ± 0.09 µg/kg and the “Blood serum Relative difference” value [4] was 0.75. For the same molecule, the “Lung tissue Relative difference” value [4] was 1.24.
For `CC1c2cccc(O)c2C(O)=C2C(=O)C3(O)C(O)=C(C(N)=O)C(=O)C(N(C)C)C3C(O)C21.CCCCCCCCCCOS(=O)(=O)O` (stereo not drawn) [doxycycline CnH2n+1OSO3^− n=10], the Solubility [1, 7] was 3777 µg/mL.
`CCCCCCCCCCCCCCS(=O)(=O)O.COc1cccc2c1C(=O)c1c(O)c3c(c(O)c1C2=O)CC(O)(C(=O)CO)CC3OC1CC(N)C(O)C(C)O1` (stereo not drawn) [doxorubicin CnH2n+1SO3^− n=14] showed a Solubility [1, 6] of 45.96 µg/mL.
For `CC1c2cccc(O)c2C(O)=C2C(=O)C3(O)C(O)=C(C(N)=O)C(=O)C(N(C)C)C3C(O)C21.CCCCCCCCCCCCS(=O)(=O)O` (stereo not drawn) [doxycycline CnH2n+1SO3^− n=12], the “Blood serum Difference” value [2] was 0.53, the “Lung tissue Difference” value [2] was 5.48 and the “Blood serum DOX” value [2] was 61 ± 7 ng/mL. For the same molecule, the “Lung tissue DOX” value [2] was 943 ± 600 ng/mL, the Solubility [1, 7] was 320.3 µg/mL and the “Solubility in 20% ethanol” value [1] was 0.3203.
In the case of `CCCCCCCCCCCCCCCCCCS(=O)(=O)O.COc1cccc2c1C(=O)c1c(O)c3c(c(O)c1C2=O)CC(O)(C(=O)CO)CC3OC1CC(N)C(O)C(C)O1` (stereo not drawn) [doxorubicin CnH2n+1SO3^− n=18], the Solubility [1, 6] was 2.79 µg/mL.
In the case of `CCCCCCCCCCCCCCOS(=O)(=O)O.CCCCCCCCCCCCCCOS(=O)(=O)O.O=C1c2c(O)ccc(O)c2C(=O)c2c(NCCNCCO)ccc(NCCNCCO)c21` [mitoxantrone CnH2n+1OSO3^− n=14], the Solubility [1, 5] was 7.2 µg/mL.
In the case of `CCCCCCCCCCCCCCS(=O)(=O)O.CCc1c2c(nc3ccc(OC(=O)N4CCC(N5CCCCC5)CC4)cc13)-c1cc3c(c(=O)n1C2)COC(=O)C3(O)CC` (stereo not drawn) [irinotecan alkane sulfonate n=14], the Solubility [1, 8] was 70.64 µg/mL.
